Experiments:
[1] = (§1) The drug is tested on Z-019 corresponding to rat gut metagenome with ENA study accession number: PRJEB37062 and ENA sample accession number: ERS12561818 for biotransformation under anaerobic condition. The drug concentrations were measured over 9 timepoints collected between 0 and 24 hours of incubation by liquid-chromatography-coupled mass spectrometry (LC–MS); conditions: 2 µM
[2] = human gut metagenome, 24 h, 2 µM
[3] = human gut metagenome, 24 h, 2 µM; remark: listed apart in the source
[4] = human gut metagenome, 24 h, 2 µM; remark: listed apart in the source
[5] = human gut metagenome, 24 h, 2 µM; remark: listed apart in the source
[6] = human gut metagenome, 24 h, 2 µM; remark: listed apart in the source
[7] = human gut metagenome, 24 h, 2 µM; remark: listed apart in the source
[8] = human gut metagenome, 24 h, 2 µM; remark: listed apart in the source
[9] = human gut metagenome, 24 h, 2 µM; remark: listed apart in the source
[10] = as §1, with “on Z-003” for “on Z-019”, “to pig” for “to rat”, “number: ERS12561803” for “number: ERS12561818”; conditions: 2 µM
[11] = as §1, with “on Z-002” for “on Z-019”, “to rabbit” for “to rat”, “number: ERS12561802” for “number: ERS12561818”; conditions: 2 µM
[12] = human gut metagenome, 24 h, 2 µM; remark: listed apart in the source
[13] = human gut metagenome, 24 h, 2 µM; remark: listed apart in the source
[14] = as §1, with “on Z-009” for “on Z-019”, “to pig” for “to rat”, “number: ERS12561809” for “number: ERS12561818”; conditions: 2 µM
[15] = human gut metagenome, 24 h, 2 µM; remark: listed apart in the source
[16] = human gut metagenome, 24 h, 2 µM; remark: listed apart in the source
[17] = as §1, with “on WLS-098” for “on Z-019”, “to human” for “to rat”, “number: ERS12561754” for “number: ERS12561818”; conditions: 2 µM
[18] = human gut metagenome, 24 h, 2 µM; remark: listed apart in the source
[19] = as §1, with “on WLS-006” for “on Z-019”, “to human” for “to rat”, “number: ERS12561741” for “number: ERS12561818”; conditions: 2 µM
[20] = as §1, with “Z-014” for “Z-019”, “ERS12561814” for “ERS12561818”; conditions: 2 µM
Also: call rule not given here.

| SMILES | Bacterial Biotransformation [1] | Bacterial Biotransformation [2] | Bacterial Biotransformation [3] | Bacterial Biotransformation [4] | Bacterial Biotransformation [5] | Bacterial Biotransformation [6] | Bacterial Biotransformation [7] | Bacterial Biotransformation [8] | Bacterial Biotransformation [9] | Bacterial Biotransformation [10] | Bacterial Biotransformation [11] | Bacterial Biotransformation [12] | Bacterial Biotransformation [13] | Bacterial Biotransformation [14] | Bacterial Biotransformation [15] | Bacterial Biotransformation [16] | Bacterial Biotransformation [17] | Bacterial Biotransformation [18] | Bacterial Biotransformation [19] | Bacterial Biotransformation [20] |
| --- | --- | --- | --- | --- | --- | --- | --- | --- | --- | --- | --- | --- | --- | --- | --- | --- | --- | --- | --- | --- |
| CCCCc1nc(Cl)c(CO)n1Cc1ccc(-c2ccccc2-c2nn[nH]n2)cc1 [LOSARTAN] | Compound NOT metabolized | Compound metabolized | Compound metabolized | Compound NOT metabolized | Compound metabolized | Compound NOT metabolized | Compound metabolized | Compound metabolized | Compound metabolized | Compound NOT metabolized | Compound NOT metabolized | Compound metabolized | Compound metabolized | Compound NOT metabolized | Compound metabolized | Compound metabolized | Compound metabolized | Compound metabolized | Compound metabolized | Compound NOT metabolized |
| CCOC(=O)[C@H](CCc1ccccc1)N[C@@H](C)C(=O)N1[C@H](C(=O)O)C[C@H]2CCCC[C@@H]21 [TRANDOLAPRIL] | Compound NOT metabolized | Compound metabolized | Compound metabolized | Compound metabolized | Compound NOT metabolized | Compound metabolized | Compound metabolized | Compound NOT metabolized | Compound metabolized | Compound metabolized | Compound metabolized | Compound NOT metabolized | Compound metabolized | Compound metabolized | Compound NOT metabolized | Compound metabolized | Compound metabolized | Compound NOT metabolized | Compound metabolized | Compound NOT metabolized |
| CN1CCc2c(c3ccccc3n2Cc2ccccc2)C1.CN1CCc2c(c3ccccc3n2Cc2ccccc2)C1.O=S(=O)(O)c1cccc2c(S(=O)(=O)O)cccc12 | Compound NOT metabolized | Compound NOT metabolized | Compound NOT metabolized | Compound NOT metabolized | Compound NOT metabolized | Compound metabolized | Compound metabolized | Compound metabolized | Compound metabolized | Compound NOT metabolized | Compound NOT metabolized | Compound metabolized | Compound metabolized | Compound NOT metabolized | Compound NOT metabolized | Compound metabolized | Compound NOT metabolized | Compound metabolized | Compound NOT metabolized | Compound NOT metabolized |
| CN(C)C(=O)C(CCN1CCC(O)(c2ccc(Cl)cc2)CC1)(c1ccccc1)c1ccccc1 [LOPERAMIDE] | Compound NOT metabolized | Compound metabolized | Compound metabolized | Compound metabolized | Compound metabolized | Compound metabolized | Compound metabolized | Compound metabolized | Compound metabolized | Compound metabolized | Compound metabolized | Compound metabolized | Compound metabolized | Compound metabolized | Compound metabolized | Compound metabolized | Compound metabolized | Compound metabolized | Compound metabolized | Compound metabolized |
| CCCCC(=O)N(Cc1ccc(-c2ccccc2-c2nnn[nH]2)cc1)[C@H](C(=O)O)C(C)C | Compound NOT metabolized | Compound metabolized | Compound metabolized | Compound metabolized | Compound metabolized | Compound metabolized | Compound metabolized | Compound metabolized | Compound metabolized | Compound NOT metabolized | Compound NOT metabolized | Compound metabolized | Compound metabolized | Compound NOT metabolized | Compound metabolized | Compound metabolized | Compound metabolized | Compound metabolized | Compound metabolized | Compound NOT metabolized |
| CN1CC(=O)N2[C@H](c3ccc4c(c3)OCO4)c3[nH]c4ccccc4c3C[C@@H]2C1=O | Compound NOT metabolized | Compound metabolized | Compound metabolized | Compound NOT metabolized | Compound metabolized | Compound metabolized | Compound metabolized | Compound metabolized | Compound metabolized | Compound metabolized | Compound metabolized | Compound metabolized | Compound metabolized | Compound metabolized | Compound NOT metabolized | Compound metabolized | Compound metabolized | Compound metabolized | Compound metabolized | Compound NOT metabolized |
| CCCc1nc(C(C)(C)O)c(C(=O)OCc2oc(=O)oc2C)n1Cc1ccc(-c2ccccc2-c2nnn[nH]2)cc1 [OLMESARTAN MEDOXOMIL] | Compound NOT metabolized | Compound metabolized | Compound NOT metabolized | Compound metabolized | Compound metabolized | Compound metabolized | Compound metabolized | Compound NOT metabolized | Compound NOT metabolized | Compound metabolized | Compound metabolized | Compound metabolized | Compound metabolized | Compound metabolized | Compound metabolized | Compound metabolized | Compound NOT metabolized | Compound metabolized | Compound metabolized | Compound NOT metabolized |
| CC(CN1c2ccccc2Sc2ccccc21)N(C)C (stereo not given) [PROMETHAZINE] | Compound NOT metabolized | Compound NOT metabolized | Compound metabolized | Compound NOT metabolized | Compound NOT metabolized | Compound metabolized | Compound metabolized | Compound NOT metabolized | Compound metabolized | Compound NOT metabolized | Compound NOT metabolized | Compound metabolized | Compound metabolized | Compound NOT metabolized | Compound NOT metabolized | Compound metabolized | Compound metabolized | Compound metabolized | Compound metabolized | Compound NOT metabolized |
| COc1ccccc1OCC(O)COC(N)=O (stereo not given) [METHOCARBAMOL] | Compound NOT metabolized | Compound NOT metabolized | Compound NOT metabolized | Compound NOT metabolized | Compound NOT metabolized | Compound NOT metabolized | Compound NOT metabolized | Compound NOT metabolized | Compound NOT metabolized | Compound NOT metabolized | Compound NOT metabolized | Compound NOT metabolized | Compound NOT metabolized | Compound NOT metabolized | Compound NOT metabolized | Compound NOT metabolized | Compound NOT metabolized | Compound NOT metabolized | Compound NOT metabolized | Compound NOT metabolized |

From ChEMBL document CHEMBL5724914, “Linking interpersonal differences in gut microbiota composition and drug biotransformation activity” (2024)
